The results in this text go back to US9834550B2, “Pyridopyrimidinone compounds for modulating the catalytic activity of histone lysine demethylases (KDMs)” (Dong-A Socio Holdings Co., Ltd., priority 2014, dated 2017).

The target of assay [1] is T1, Recombinant human JARID1B/KDM5B (Homo sapiens, UniProt Q9UGL1).
T1 construct: purchased Active Motif 31432; host or cells: Sf9 insect cells
Kind of assay: LANCE Ultra TR-FRET demethylase assay with FLAG-tagged JARID1B. Format: biochemical. Particulars: 100 nM compound; 500 nM biotinylated H3K4me3 peptide substrate. In short, it runs like this:
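Sf9-expressed N-FLAG full-length JARID1B (10–30 nM) preincubated 5 min with compound at 20, 1 or 0.1 uM (1% DMSO), then 500 nM biotin-H3K4me3 peptide, 500 uM 2-OG, 25 uM Fe(II), 2 mM ascorbate added; 30 min at room temperature in Hepes pH 7.5. H3K4me2/1 product read by TR-FRET 665/590 ratio.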

Assay [2] has as its system MDA-MB-231 cell migration. Briefly: Wound healing assay. Format: cell-based. Particulars: 24 h treatment; compared to DMSO; FIG. 1. As to the method:
Breast cancer cells (MDA-MD-231) were seeded into 12-well plates (2500 cells/well), at bottom of which culture-inserts were implemented. The cells were cultured to subconfluence in RPMI1640 medium supplemented with 0.5% FBS and 100 μg/ml penicillin/streptomycin, and then starved in serum-free media for one day at 37° C. and 5% CO2. The inserts were removed to generate two cell patches separated each other by 0.9 mm of ‘wound fields’. Cultures were then treated with test compounds for 24 h. The results of wound healing assays at indicated time were photographed under microscopy with ×40 magnification after generating the wound fields. […] Similar results were obtained in three independent samples. The cancer cells were stained with 0.1% crystal violet at 24-hours time points.

For assay [3], the system named is MDA-MB-231 breast cancer cells. Briefly: Cell invasion assay (transwell, BME). The class given is cell-based. To be noted: 10 μM; 24-h incubation; FIG. 2. The method, then:
The ability of MDA-MB-231 breast cancer cells to invade into the basement membrane through a layer of BME (Basement Membrane Extract) was determined by using transwell inserts in a 24-well plate. The pore size of membrane was […]. The basement membrane was reconstituted by loading cold BME on top of the polycarbonate filter of the inserts of the transwell plate. After gelation of Matrigel at 37° C., MDA-MB-231 cells were plated into the inserts (1×10^5 cells/0.3 ml/well), and complete media were added to the lower wells (0.5 ml/well). To analyze the effect of 10 μM of compounds No. 87, 167, isonicotinic acid r or SAHA, was present in the cell suspensions. After a 24-h incubation, the noninvasive cells were remained within the inserts while cells that traversed through the BME and the polycarbonate filter were attached to the lower surface of the filter. The penetrated cells were then stained with 0.1% crystal violet.

T1 sequence (Q9UGL1 whole entry): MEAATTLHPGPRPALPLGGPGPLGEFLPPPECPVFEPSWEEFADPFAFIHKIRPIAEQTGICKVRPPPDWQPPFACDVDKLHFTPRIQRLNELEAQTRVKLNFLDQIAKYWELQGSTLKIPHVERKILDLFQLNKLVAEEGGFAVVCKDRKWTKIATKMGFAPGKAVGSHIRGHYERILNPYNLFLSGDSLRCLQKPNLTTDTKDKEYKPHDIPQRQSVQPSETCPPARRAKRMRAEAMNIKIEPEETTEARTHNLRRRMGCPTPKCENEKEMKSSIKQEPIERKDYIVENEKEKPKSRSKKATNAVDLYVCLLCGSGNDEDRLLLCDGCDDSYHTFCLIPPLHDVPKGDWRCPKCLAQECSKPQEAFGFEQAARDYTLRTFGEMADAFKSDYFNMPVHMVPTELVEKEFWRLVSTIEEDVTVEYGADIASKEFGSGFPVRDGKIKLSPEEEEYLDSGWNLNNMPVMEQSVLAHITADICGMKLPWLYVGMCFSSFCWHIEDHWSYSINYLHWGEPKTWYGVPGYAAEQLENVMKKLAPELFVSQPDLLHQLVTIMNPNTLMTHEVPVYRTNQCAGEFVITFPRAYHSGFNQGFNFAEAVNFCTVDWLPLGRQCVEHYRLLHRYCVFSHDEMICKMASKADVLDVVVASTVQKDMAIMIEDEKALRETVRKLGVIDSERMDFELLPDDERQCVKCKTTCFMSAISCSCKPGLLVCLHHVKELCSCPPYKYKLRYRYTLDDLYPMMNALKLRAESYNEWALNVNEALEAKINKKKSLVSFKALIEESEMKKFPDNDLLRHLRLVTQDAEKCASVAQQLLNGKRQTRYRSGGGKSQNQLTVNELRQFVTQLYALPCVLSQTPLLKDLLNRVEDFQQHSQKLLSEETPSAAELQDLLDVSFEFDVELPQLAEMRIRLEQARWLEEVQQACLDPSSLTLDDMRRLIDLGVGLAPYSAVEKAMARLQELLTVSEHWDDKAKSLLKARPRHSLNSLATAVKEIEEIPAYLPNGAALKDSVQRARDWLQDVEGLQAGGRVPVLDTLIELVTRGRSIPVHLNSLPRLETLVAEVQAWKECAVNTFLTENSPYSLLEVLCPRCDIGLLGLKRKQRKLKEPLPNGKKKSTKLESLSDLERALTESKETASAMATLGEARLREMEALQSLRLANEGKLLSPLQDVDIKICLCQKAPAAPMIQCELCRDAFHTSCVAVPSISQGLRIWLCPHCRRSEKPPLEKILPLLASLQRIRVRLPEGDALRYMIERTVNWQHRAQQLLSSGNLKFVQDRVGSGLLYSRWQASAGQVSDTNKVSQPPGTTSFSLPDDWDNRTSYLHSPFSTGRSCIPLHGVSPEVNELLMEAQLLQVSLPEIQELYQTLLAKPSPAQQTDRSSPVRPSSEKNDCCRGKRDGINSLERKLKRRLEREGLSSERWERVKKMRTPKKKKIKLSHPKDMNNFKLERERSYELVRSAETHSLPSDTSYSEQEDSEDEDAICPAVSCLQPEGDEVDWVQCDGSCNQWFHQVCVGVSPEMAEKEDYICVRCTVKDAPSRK

Regarding `CCN(CC)CCCC(C)NCc1nccc2c(=O)[nH]cnc12` (stereo not drawn) [Example 87, 8-(((5-(diethylamino)pentan-2-yl)amino)methyl)pyrido[3,4-d]pyrimidin-4(3H)-one], the inhibition at 0.1 µM in assay [1] was below 20%. In assay [2], the “MDA-MB-231 cell migration (wound healing)” value was “inactive”.

For `CN1CCC(CNCc2nccc3c(=O)[nH]c(COc4ccc(Cc5ccccc5)cc4)nc23)C1` (stereo not drawn) [Example 144, 2-((4-benzylphenoxy)methyl)-8-((((1-methylpyrrolidin-3-yl)methyl)amino)methyl)pyrido[3,4-d]pyrimidin-4(3H)-one], the inhibition at 0.1 µM in assay [1] is above 50%. Further, the “MDA-MB-231 cell migration (wound healing)” value in assay [2] is on record as “suppressed MDA-MB-231 cell migration”.

As for `O=c1[nH]c(COc2ccc(F)c(Cl)c2)nc2c(CNCC3CNCCO3)nccc12` (stereo not drawn) [Example 167, 2-((3-chloro-4-fluorophenoxy)methyl)-8-(((morpholin-2-ylmethyl)amino)methyl)pyrido[3,4-d]pyrimidin-4(3H)-one], the inhibition at 0.1 µM in assay [1] was above 50%. Besides, in assay [3], the “MDA-MB-231 breast cancer cell invasion potential” value is reported as “decreased the MDA-MB-231 breast cancer cell invasion potential”.

On to `O=C(CNCc1nccc2c(=O)[nH]c(COc3ccc(F)c(Cl)c3)nc12)N1CCC(N2CCCC2)CC1` [Example 234, 2-((3-chloro-4-fluorophenoxy)methyl)-8-(((2-oxo-2-(4-(pyrrolidin-1-yl)piperidin-1-yl)ethyl)amino)methyl)pyrido[3,4-d]pyrimidin-4(3H)-one], for which the inhibition at 0.1 µM in assay [1] was above 50%.

With `O=C(CNCc1nccc2c(=O)[nH]c(COc3ccc(F)c(Cl)c3)nc12)N1CCC(N2CCOCC2)C1` (stereo not drawn) [Example 235, 2-((3-chloro-4-fluorophenoxy)methyl)-8-(((2-(3-morpholinopyrrolidin-1-yl)-2-oxoethyl)amino)methyl)pyrido[3,4-d]pyrimidin-4(3H)-one], the inhibition at 0.1 µM in assay [1] was 20 to 50%.

On to `CCN(CC)C1CCN(C(=O)CNCc2nccc3c(=O)[nH]c(COc4ccc(F)c(Cl)c4)nc23)C1` (stereo not drawn) [Example 236, 2-((3-chloro-4-fluorophenoxy)methyl)-8-(((2-(3-(diethylamino)pyrrolidin-1-yl)-2-oxoethyl)amino)methyl)pyrido[3,4-d]pyrimidin-4(3H)-one], for which the inhibition at 0.1 µM in assay [1] is above 50%.

For the compound `CN(C)C1CCN(C(=O)CNCc2nccc3c(=O)[nH]c(COc4ccc(F)c(Cl)c4)nc23)C1` (stereo not drawn) [Example 237, 2-((3-chloro-4-fluorophenoxy)methyl)-8-(((2-(3-(dimethylamino)pyrrolidin-1-yl)-2-oxoethyl)amino)methyl)pyrido[3,4-d]pyrimidin-4(3H)-one], the inhibition at 0.1 µM in assay [1] was above 50%.

As for `CNC1CCN(C(=O)CNCc2nccc3c(=O)[nH]c(COc4ccc(F)c(Cl)c4)nc23)C1` (stereo not drawn) [Example 238, 2-((3-chloro-4-fluorophenoxy)methyl)-8-(((2-(3-(methylamino)pyrrolidin-1-yl)-2-oxoethyl)amino)methyl)pyrido[3,4-d]pyrimidin-4(3H)-one], the inhibition at 0.1 µM in assay [1] is above 50%.

With `O=C(CNCc1nccc2c(=O)[nH]c(COc3ccc(F)c(Cl)c3)nc12)N[C@@H]1CCNC1` [Example 239, (R)-2-(((2-((3-chloro-4-fluorophenoxy)methyl)-4-oxo-3,4-dihydropyrido[3,4-d]pyrimidin-8-yl)methyl)amino)-N-(pyrrolidin-3-yl)acetamide], the inhibition at 0.1 µM in assay [1] is above 50%.

Regarding `O=C(CC1CCNCC1)NCc1nccc2c(=O)[nH]c(COc3ccc(F)c(Cl)c3)nc12` [Example 240, N-((2-((3-chloro-4-fluorophenoxy)methyl)-4-oxo-3,4-dihydropyrido[3,4-d]pyrimidin-8-yl)methyl)-2-(piperidin-4-yl)acetamide], in assay [1], the inhibition at 0.1 µM was below 20%.

Turning to `O=C(NCc1nccc2c(=O)[nH]c(COc3ccc(F)c(Cl)c3)nc12)C1CCCNC1` (stereo not drawn) [Example 241, N-((2-((3-chloro-4-fluorophenoxy)methyl)-4-oxo-3,4-dihydropyrido[3,4-d]pyrimidin-8-yl)methyl)piperidine-3-carboxamide], the inhibition at 0.1 µM in assay [1] was below 20%.

Regarding `O=C(CCCCCCC(=O)Nc1ccccc1)NO` [SAHA, reference compound], the “MDA-MB-231 breast cancer cell invasion potential” value in assay [3] is given as “decreased the MDA-MB-231 breast cancer cell invasion potential”.
